Values of other authors as cited in PMC4059071 (Angewandte Chemie (International ed. in English), 2013).

Tested on: Akt
Conditions: ref [13]

Cc1n[nH]c2ccc(-c3cncc(OC[C@@H](N)Cc4c[nH]c5ccccc45)c3)cc12 [A-443654]
effect on Akt phosphorylation (Thr308 and Ser473 of Akt): paradoxical hyperphosphorylation of Akt at both Thr308 and Ser473
effect on Akt protein activity after inhibitor dissociation: protein reactivation after inhibitor dissociation
